Laboratory results taken from US20090312396A1, “METHODS FOR CANCER TREATMENT USING TAK1 INHIBITORS” (AstraZeneca AB, priority 2006, published 2009).

What was measured:
Test in all cases: AlamarBlue proliferation assay, GI50
Type in all cases: cell-based
[1] = test system: JEKO-1; conditions: Homo sapiens, 72 hours, Table 6, read-out: GI50 JEKO-1 MCL
Procedure: (§1) The TAK1 inhibitors are known in the art (see for example, WO 2003010158, WO 2003010163 and WO2004063186 the disclosures of which are incorporated by reference herein). All cell lines were plated at 10,000 cells/well in flat-bottomed 96 well plates and dosed with test compounds in triplicate over a 10 point dosing range from 0 to 30 μmolesL^−1. All cell lines were incubated with test compounds for a total of 72 hours. Background levels were determined for a control (undosed) plate within 2 hours of dosing test compounds. Following the dosing period, the extent of proliferation was measured by adding 1/10 (vol/vol) AlamarBlue reagent to every well and incubating the plates for a further 4 hours. The reaction was stopped by the addition of SDS to a final concentration of 0.1%. Fluorescence was measured at 545 nm (excitation) and 600 nm (emission). Growth inhibition 50 (GI50) values were determined for each test compound across the panel.
(§2) The experiments to generate the results for both Tables 5 and 6 were performed as described above.

[2] = test system: JJN-3; conditions: Homo sapiens, 72 hours, Table 5, read-out: GI50 JJN-3 plasma cell leukemia
Procedure: as §1, §2

[3] = test system: JVM-3; conditions: Homo sapiens, 72 hours, Table 6, read-out: GI50 JVM-3 B-PLL
Procedure: as §1, §2

[4] = test system: KARPAS-620; conditions: Homo sapiens, 72 hours, Table 5, read-out: GI50 KARPAS-620 plasma cell leukemia
Procedure: as §1, §2

[5] = test system: MOLP-8; conditions: Homo sapiens, 72 hours, Table 5, read-out: GI50 MOLP-8 Multiple myeloma
Procedure: as §1, §2

[6] = test system: NAMALWA; conditions: Homo sapiens, 72 hours, Table 6, read-out: GI50 NAMALWA Burkitts Lymphoma
Procedure: as §1, §2

[7] = test system: RPMI-8226; conditions: Homo sapiens, 72 hours, Table 5, read-out: GI50 RPMI-8226 Multiple myeloma
Procedure: as §1, §2

[8] = test system: Ramos; conditions: Homo sapiens, 72 hours, Table 6, read-out: GI50 Ramos Burkitts Lymphoma
Procedure: as §1, §2

[9] = test system: SC-1; conditions: Homo sapiens, 72 hours, Table 6, read-out: GI50 SC-1 FL
Procedure: as §1, §2

[10] = test system: U937; conditions: Homo sapiens, U-937, 72 hours, Table 6, read-out: GI50 U937 Histiocytic lymphoma
Procedure: as §1, §2

## COC(C)(C)CNCc1ccc(-c2cc(NC(N)=O)c(C(N)=O)s2)cc1 [Compound 4, 3-[(aminocarbonyl)amino]-5-(4-{[(2-methoxy-2-methylpropyl)amino]methyl}phenyl)thiophene-2-carboxamide]
[1]
  GI50: 290 nM
[2]
  GI50: 520 nM
[3]
  GI50: 140 nM
[4]
  GI50: 140 nM
[5]
  GI50: 90 nM
[6]
  GI50: 2960 nM
[7]
  GI50: 1600 nM
[8]
  GI50: 210 nM
[9]
  GI50: 2880 nM
[10]
  GI50: 120 nM
